In PubChem BioAssay AID212 (DTP/NCI, 2004):
Several values for one entry are separate records, joined by “and”; a condition that tells them apart may be missing. Equal entries are not always repeated. Results filed as inconclusive are left out.

Test system: BDF1 mice, colon carcinoma 38 sc, T/C %
Test: NCI In Vivo Anticancer Drug Screen. Data for tumor model Colon Carcinoma 38 (subcutaneous) in B6D2F1 (BDF1) mice
Settings: endpoint: median tumor weight (est.), higher = larger tumour
In short: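 Ratio of survival or tumor size, compound-treated animals relative to vehicle controls, in tumor-bearing mice.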

[1] = dose: 12.5 mg/kg/injection, schedule: Q07DX002 (ip), vehicle: Klucel (hydroxypropylcellulose) (HPC)
[2] = dose: 25.0 mg/kg/injection, schedule: Q07DX002 (ip), vehicle: Klucel (hydroxypropylcellulose) (HPC)
[3] = dose: 50.0 mg/kg/injection, schedule: Q07DX002 (ip), vehicle: Klucel (hydroxypropylcellulose) (HPC)
[4] = dose: 25.0 mg/kg/injection, schedule: Q07DX002 (ip), vehicle: saline with Tween-80
[5] = dose: 50.0 mg/kg/injection, schedule: Q07DX002 (ip), vehicle: saline with Tween-80
[6] = dose: 100.0 mg/kg/injection, schedule: Q07DX002 (ip), vehicle: saline with Tween-80
[7] = dose: 200.0 mg/kg/injection, schedule: Q07DX002 (ip), vehicle: saline with Tween-80
[8] = dose: 6.25 mg/kg/injection, schedule: Q07DX002 (ip), vehicle: Klucel (hydroxypropylcellulose) (HPC)
[9] = dose: 25.0 mg/kg/injection, schedule: Q07DX002 (ip), vehicle: saline
[10] = dose: 6.25 mg/kg/injection, schedule: Q07DX002 (ip), vehicle: saline with Tween-80
[11] = dose: 12.5 mg/kg/injection, schedule: Q07DX002 (ip), vehicle: saline with Tween-80
[12] = dose: 800.0 mg/kg/injection, schedule: Q07DX002 (ip), vehicle: saline

COc1ccc2c(c1)CCC(c1ccccc1)=C2c1ccc(OCCN2CCCC2)cc1
T/C [1]: 68 % of control and 85 % of control
T/C [2]: 83 % of control and 87 % of control
T/C [3]: 70 % of control
T/C (dose: 100.0 mg/kg/injection, schedule: Q07DX002 (ip), vehicle: Klucel (hydroxypropylcellulose) (HPC)): 77 % of control and 79 % of control
T/C (dose: 200.0 mg/kg/injection, schedule: Q07DX002 (ip), vehicle: Klucel (hydroxypropylcellulose) (HPC)): 100 % of control

CC1(C)CC23C4COC(=O)C2CCC1C3CC4=O (stereo unspecified)
T/C (dose: 6.25 mg/kg/injection, schedule: Q07DX002 (ip), vehicle: DMSO): 116 % of control and 101 % of control
T/C (dose: 25.0 mg/kg/injection, schedule: Q07DX002 (ip), vehicle: DMSO): 81 % of control and 92 % of control
T/C (dose: 50.0 mg/kg/injection, schedule: Q07DX002 (ip), vehicle: DMSO): 121 % of control and 105 % of control
T/C (dose: 200.0 mg/kg/injection, schedule: Q07DX002 (ip), vehicle: DMSO): 103 % of control

Nc1cc2c3c(cccc3c1)C(=O)N(CCN1CCCC1)C2=O
T/C (dose: 15.0 mg/kg/injection, schedule: Q07DX002 (ip), vehicle: saline with Tween-80): 75 % of control
T/C [4]: 117 % of control
T/C (dose: 30.0 mg/kg/injection, schedule: Q07DX002 (ip), vehicle: saline with Tween-80): 83 % of control
T/C [5]: 152 % of control
T/C (dose: 60.0 mg/kg/injection, schedule: Q07DX002 (ip), vehicle: saline with Tween-80): 73 % of control
T/C [6]: 90 % of control
T/C (dose: 120.0 mg/kg/injection, schedule: Q07DX002 (ip), vehicle: saline with Tween-80): 62 % of control
T/C [7]: 28 % of control

NC(=O)c1ncn2c(=O)n(CCCl)nnc12
T/C (dose: 6.0 mg/kg/injection, schedule: Q07DX002 (ip), vehicle: saline): 110 % of control
T/C [8]: 43 % of control and 65 % of control
T/C (dose: 6.25 mg/kg/injection, schedule: Q07DX002 (ip), vehicle: saline): 47 % of control
T/C (dose: 12.0 mg/kg/injection, schedule: Q07DX002 (ip), vehicle: saline): 51 % of control
T/C [1]: 22 % of control and 45 % of control
T/C [2]: 21 % of control and 36 % of control
T/C [9]: 55 % of control and 59 % of control
T/C [3]: 2 % of control
T/C (dose: 100.0 mg/kg/injection, schedule: Q07DX002 (ip), vehicle: saline): 2 % of control

CCc1nc(N)nc(N)c1-c1ccc(Cl)c([N+](=O)[O-])c1
T/C (dose: 3.12 mg/kg/injection, schedule: Q07DX002 (ip), vehicle: saline with Tween-80): 70 % of control
T/C [10]: 65 % of control and 77 % of control
T/C [11]: 97 % of control and 103 % of control
T/C [5]: 45 % of control and 62 % of control
T/C [6]: 52 % of control

Cc1ccc[c]([Hg][Cl])c1N=Nc1ccccc1
T/C [10]: 69 % of control

O=c1cc(-c2ccccc2)[nH]c2c1CCCC2
T/C (dose: 900.0 mg/kg/injection, schedule: Q07DX002 (ip), vehicle: saline with Tween-80): 101 % of control

CC(/C=N/N=C(N)N)=N\N=C(N)N
T/C (dose: 6.25 mg/kg/injection, schedule: Q07DX003 (ip), vehicle: saline): 66 % of control
T/C (dose: 12.5 mg/kg/injection, schedule: Q07DX003 (ip), vehicle: saline): 66 % of control
T/C (dose: 25.0 mg/kg/injection, schedule: Q07DX003 (ip), vehicle: saline): 79 % of control
T/C (dose: 100.0 mg/kg/injection, schedule: Q07DX003 (ip), vehicle: saline): 115 % of control

CC(=O)C(O)N1C(=O)C=CC1=O (stereo unspecified)
T/C (dose: 0.62 mg/kg/injection, schedule: Q07DX003 (ip), vehicle: saline): 109 % of control
T/C (dose: 1.25 mg/kg/injection, schedule: Q07DX003 (ip), vehicle: saline): 76 % of control
T/C (dose: 2.5 mg/kg/injection, schedule: Q07DX003 (ip), vehicle: saline): 111 % of control
T/C (dose: 5.0 mg/kg/injection, schedule: Q07DX003 (ip), vehicle: saline): 108 % of control

C[Si](C)(C)O/C=C1\CCCCC1=O
T/C [5]: 73 % of control and 91 % of control
T/C [6]: 79 % of control and 100 % of control

COc1cccc2c1C(=O)c1c(O)c3c(c(O)c1C2=O)C[C@@](O)(/C(C)=N/NC(=O)c1ccccc1)C[C@@H]3OC1CC(N)C(O)C(C)O1 (stereo partly specified)
T/C (dose: 2.0 mg/kg/injection, schedule: Q07DX002 (ip), vehicle: water): 100 % of control
T/C (dose: 4.0 mg/kg/injection, schedule: Q07DX002 (ip), vehicle: water): 107 % of control
T/C (dose: 8.0 mg/kg/injection, schedule: Q07DX002 (ip), vehicle: water): 102 % of control
T/C (dose: 16.0 mg/kg/injection, schedule: Q07DX002 (ip), vehicle: water): 16 % of control

CC1C2CCC3C(O)C2(CC(O)C2(O)C1CC(O)C2(C)C)CC3(C)O (stereo unspecified)
T/C (dose: 0.5 mg/kg/injection, schedule: Q07DX002 (ip), vehicle: Klucel (hydroxypropylcellulose) (HPC)): 103 % of control
T/C (dose: 2.0 mg/kg/injection, schedule: Q07DX002 (ip), vehicle: Klucel (hydroxypropylcellulose) (HPC)): 181 % of control

OCC12COCN1COC2
T/C [9]: 82 % of control and 86 % of control
T/C (dose: 400.0 mg/kg/injection, schedule: Q07DX002 (ip), vehicle: saline): 85 % of control and 97 % of control
T/C [12]: 91 % of control

NC(=S)N/N=C/c1ccc(OC(=O)COc2ccccc2)cn1
T/C [4]: 88 % of control
T/C [5]: 88 % of control
T/C [6]: 55 % of control
T/C [7]: 72 % of control
T/C (dose: 400.0 mg/kg/injection, schedule: Q07DX002 (ip), vehicle: saline with Tween-80): 57 % of control

CN1C(=O)C(=Cc2ccc(O)cc2)C(=O)N(C)C1=O
T/C [11]: 105 % of control
T/C [4]: 53 % of control

Nc1cc2c(c[n+](CCCCCCCC[n+]3cc4c5ccccc5c(N)cc4c4ccccc43)c3ccccc23)c2ccccc12
T/C (dose: 7.5 mg/kg/injection, schedule: Q07DX002 (ip), vehicle: water): 108 % of control
T/C (dose: 15.0 mg/kg/injection, schedule: Q07DX002 (ip), vehicle: water): 82 % of control
T/C (dose: 30.0 mg/kg/injection, schedule: Q07DX002 (ip), vehicle: water): 94 % of control
T/C (dose: 60.0 mg/kg/injection, schedule: Q07DX002 (ip), vehicle: water): 53 % of control

N#CC(OC1OC(COC2OC(CO)C(O)C(O)C2O)C(O)C(O)C1O)c1ccccc1 (stereo unspecified)
T/C (dose: 50.0 mg/kg/injection, schedule: Q07DX002 (ip), vehicle: water): 98 % of control
T/C (dose: 100.0 mg/kg/injection, schedule: Q07DX002 (ip), vehicle: water): 87 % of control
T/C (dose: 200.0 mg/kg/injection, schedule: Q07DX002 (ip), vehicle: water): 112 % of control
T/C (dose: 400.0 mg/kg/injection, schedule: Q07DX002 (ip), vehicle: water): 102 % of control
T/C (dose: 1600.0 mg/kg/injection, schedule: Q07DX002 (ip), vehicle: water): 91 % of control

CCCCN(CCCC)C(Cl)=Nc1ccccc1
T/C [1]: 111 % of control and 118 % of control
T/C [2]: 93 % of control and 94 % of control
T/C [3]: 68 % of control and 89 % of control

N#C[Se-].c1ccc([Te+](c2ccccc2)c2ccccc2)cc1
T/C (dose: 3.12 mg/kg/injection, schedule: Q07DX002 (ip), vehicle: Klucel (hydroxypropylcellulose) (HPC)): 181 % of control
T/C [8]: 80 % of control
T/C [1]: 65 % of control
T/C [2]: 186 % of control

N=C(N)SCc1cccc2c(=O)cc(-c3ccccc3)oc12
T/C [12]: 52 % of control and 69 % of control
